# In PMC2248166, “Quantitative peptide binding motifs for 19 human and mouse MHC class I molecules derived using positional scanning combinatorial peptide libraries” (Immunome Research, 2008):
# Where a SMILES comes first, the peptide text is derived from it.
# Target: HLA B*1501 (Homo sapiens, UniProt P01889, A329T/A93T/A95T/C349S/D201E/D98Y/E187L/E204Q/E69M/E70A/K202T/N87E/Q94N/R155S/R180W/S121R/S35A/S48A/V306I/V36M/Y140S/Y91S)
# Test: biochemical
# Assay type: binding
row,SMILES,IC50 [nM]
1,CC[C@H](C)[C@H](NC(=O)[C@H](CCSC)NC(=O)[C@@H](N)CCC(=O)O)C(=O)N[C@@H](CC(C)C)C(=O)N[C@@H](CO)C(=O)N[C@H](C(=O)N[C@@H](CO)C(=O)N[C@@H](CO)C(=O)N[C@@H](CCSC)C(=O)O)[C@@H](C)O [3102.0806] (H-EMILSTSSM-OH),1.5
2,CC[C@H](C)[C@H](NC(=O)[C@H](CCC(N)=O)NC(=O)[C@@H](N)CC(C)C)C(=O)N[C@@H](Cc1ccccc1)C(=O)N[C@@H](CO)C(=O)N[C@@H](CC(N)=O)C(=O)N[C@@H](CO)C(=O)N[C@H](C(=O)NCC(=O)O)C(C)C [3102.0809] (H-LQIFSNSVG-OH),2.1
3,CC[C@H](C)[C@H](NC(=O)[C@@H](N)Cc1ccc(O)cc1)C(=O)N[C@@H](CO)C(=O)N[C@@H](CCCCN)C(=O)N[C@H](C(=O)N[C@@H](Cc1ccccc1)C(=O)N[C@@H](CCC(=O)O)C(=O)N[C@@H](Cc1c[nH]cn1)C(=O)N[C@H](C(=O)O)C(C)C)C(C)C [3102.0810] (H-YISKVFEHV-OH),94
4,CC(C)C[C@H](N)C(=O)N[C@@H](C)C(=O)N[C@@H](CCCCN)C(=O)N[C@@H](CCCCN)C(=O)N[C@@H](CO)C(=O)N[C@@H](Cc1ccc(O)cc1)C(=O)N[C@H](C(=O)N[C@H](C(=O)N[C@@H](Cc1ccccc1)C(=O)O)C(C)C)C(C)C [3102.0811] (H-LAKKSYVVF-OH),97
5,C[C@@H](O)[C@H](N)C(=O)N[C@@H](CO)C(=O)NCC(=O)N[C@@H](CCCCN)C(=O)N[C@@H](Cc1ccc(O)cc1)C(=O)N[C@@H](Cc1ccccc1)C(=O)N[C@@H](CO)C(=O)N[C@H](C(=O)N[C@@H](Cc1ccccc1)C(=O)O)[C@@H](C)O [3102.0812] (H-TSGKYFSTF-OH),86
6,CC(C)C[C@H](NC(=O)[C@H](CS)NC(=O)[C@H](CO)NC(=O)[C@H](CCCCN)NC(=O)[C@@H](NC(=O)[C@@H](N)CCCCN)C(C)C)C(=O)N[C@@H](CS)C(=O)N[C@@H](CO)C(=O)N[C@@H](Cc1ccccc1)C(=O)O [3102.0813] (H-KVKSCLCSF-OH),17
7,CC[C@H](C)[C@H](NC(=O)[C@H](CCC(N)=O)NC(=O)[C@H](CCCNC(=N)N)NC(=O)[C@H](CC(C)C)NC(=O)[C@@H](N)CCCCN)C(=O)N[C@H](C(=O)N[C@@H](C)C(=O)N[C@@H](Cc1ccc(O)cc1)C(=O)N[C@@H](Cc1ccccc1)C(=O)O)C(C)C [3102.0815] (H-KLRQIVAYF-OH),7.6
8,CSCC[C@H](NC(=O)[C@@H](NC(=O)[C@H](CC(C)C)NC(=O)[C@H](CC(C)C)NC(=O)[C@H](Cc1ccc(O)cc1)NC(=O)[C@H](CCC(N)=O)NC(=O)[C@@H](N)CC(N)=O)[C@@H](C)O)C(=O)N[C@@H](Cc1ccccc1)C(=O)N[C@@H](Cc1ccccc1)C(=O)O [3102.0819] (H-NQYLLTMFF-OH),1.2
9,CSCC[C@H](N)C(=O)N[C@@H](CC(C)C)C(=O)N[C@@H](CC(N)=O)C(=O)N[C@H](C(=O)N[C@@H](Cc1ccc(O)cc1)C(=O)NCC(=O)N[C@@H](CCC(=O)O)C(=O)NCC(=O)N[C@@H](Cc1ccccc1)C(=O)O)[C@@H](C)O [3102.0822] (H-MLNTYGEGF-OH),2.3
10,CC(C)C[C@H](NC(=O)[C@@H](NC(=O)[C@H](CCCCN)NC(=O)[C@H](CCCCN)NC(=O)[C@H](C)NC(=O)[C@@H](N)CC(C)C)[C@@H](C)O)C(=O)N[C@@H](C)C(=O)N1CCC[C@H]1C(=O)N[C@@H](Cc1ccccc1)C(=O)O [3102.0825] (H-LAKKTLAPF-OH),2.1
11,CC[C@H](C)[C@H](NC(=O)[C@@H](NC(=O)[C@@H](N)Cc1ccccc1)[C@@H](C)CC)C(=O)N[C@@H](CCCCN)C(=O)N[C@@H](CO)C(=O)N[C@@H](CO)C(=O)N[C@@H](Cc1ccc(O)cc1)C(=O)N[C@H](C(=O)N[C@@H](Cc1ccccc1)C(=O)O)C(C)C [3102.0827] (H-FIIKSSYVF-OH),3.2
12,CC[C@H](C)[C@H](NC(=O)[C@H](Cc1ccc(O)cc1)NC(=O)[C@H](CCSC)NC(=O)[C@@H](N)CC(C)C)C(=O)N[C@@H](CC(C)C)C(=O)NCC(=O)N[C@H](C(=O)N[C@@H](Cc1ccc(O)cc1)C(=O)NCC(=O)O)[C@@H](C)O [3102.0828] (H-LMYILGTYG-OH),62
13,CC[C@H](C)[C@H](NC(=O)[C@@H](NC(=O)[C@@H](NC(=O)[C@H](C)NC(=O)[C@H](CCSC)NC(=O)[C@@H](N)Cc1ccc(O)cc1)[C@@H](C)O)[C@@H](C)O)C(=O)N[C@@H](CC(C)C)C(=O)N[C@@H](CCC(=O)O)C(=O)N[C@@H](CCSC)C(=O)O [3102.0830] (H-YMATTILEM-OH),2.2
14,CSCC[C@H](NC(=O)[C@@H](NC(=O)[C@H](CCC(=O)O)NC(=O)[C@H](CCSC)NC(=O)[C@H](CC(C)C)NC(=O)[C@H](CCSC)NC(=O)[C@H](Cc1ccccc1)NC(=O)[C@@H](NC(=O)[C@H](C)N)C(C)C)[C@@H](C)O)C(=O)O [3102.0831] (H-AVFMLMETM-OH),26
15,CC(C)C[C@H](NC(=O)[C@H](Cc1c[nH]cn1)NC(=O)[C@@H](NC(=O)[C@H](Cc1ccccc1)NC(=O)[C@H](Cc1ccc(O)cc1)NC(=O)[C@H](CS)NC(=O)[C@H](Cc1ccc(O)cc1)NC(=O)[C@H](CC(C)C)NC(=O)CN)[C@@H](C)O)C(=O)O [3102.0832] (H-GLYCYFTHL-OH),6.9
16,NCCCC[C@H](NC(=O)[C@H](CCCCN)NC(=O)[C@H](CO)NC(=O)[C@@H](N)CCCCN)C(=O)N[C@@H](Cc1ccc(O)cc1)C(=O)N[C@@H](CCC(=O)O)C(=O)NCC(=O)N1CCC[C@H]1C(=O)N[C@@H](Cc1ccccc1)C(=O)O [3102.0833] (H-KSKKYEGPF-OH),1.9
17,CSCC[C@H](NC(=O)[C@@H](N)CC(C)C)C(=O)N[C@@H](CC(N)=O)C(=O)N[C@@H](CC(N)=O)C(=O)N[C@@H](CC(C)C)C(=O)N[C@@H](CC(=O)O)C(=O)N[C@H](C(=O)N[C@@H](CC(C)C)C(=O)N[C@@H](Cc1ccccc1)C(=O)O)[C@@H](C)O [3102.0836] (H-LMNNLDTLF-OH),86
18,CC[C@H](C)[C@H](NC(=O)[C@H](CO)NC(=O)[C@@H](NC(=O)[C@H](CS)NC(=O)[C@@H](NC(=O)[C@H](CO)NC(=O)[C@H](CCCNC(=N)N)NC(=O)[C@H](CCSC)NC(=O)[C@@H](N)CC(C)C)[C@@H](C)CC)C(C)C)C(=O)O [3102.0838] (H-LMRSICVSI-OH),63
19,CSCC[C@H](N)C(=O)N[C@@H](CCC(=O)O)C(=O)N[C@@H](CCCNC(=N)N)C(=O)N[C@@H](Cc1ccccc1)C(=O)N[C@@H](CC(N)=O)C(=O)N[C@@H](CS)C(=O)N[C@@H](CO)C(=O)N[C@@H](CO)C(=O)N[C@@H](Cc1ccccc1)C(=O)O [3102.0839] (H-MERFNCSSF-OH),1.6
20,CC(C)C[C@H](N)C(=O)N[C@@H](CO)C(=O)N[C@@H](CCCNC(=N)N)C(=O)N[C@H](C(=O)N[C@@H](Cc1ccccc1)C(=O)N[C@@H](Cc1ccccc1)C(=O)N[C@@H](CS)C(=O)N[C@H](C(=O)N[C@@H](Cc1ccc(O)cc1)C(=O)O)C(C)C)C(C)C [3102.0840] (H-LSRVFFCVY-OH),2.9
21,CSCC[C@H](NC(=O)[C@H](Cc1c[nH]cn1)NC(=O)[C@@H]1CCCN1C(=O)[C@H](CC(C)C)NC(=O)[C@H](Cc1ccccc1)NC(=O)[C@H](CC(N)=O)NC(=O)[C@H](Cc1c[nH]cn1)NC(=O)[C@H](CC(C)C)NC(=O)[C@@H](N)CCSC)C(=O)O [3102.0846] (H-MLHNFLPHM-OH),41
22,CC(C)C[C@H](NC(=O)[C@@H]1CCCN1C(=O)[C@H](CCCNC(=N)N)NC(=O)[C@H](Cc1ccc(O)cc1)NC(=O)[C@H](Cc1ccccc1)NC(=O)[C@@H](NC(=O)CN)C(C)C)C(=O)N[C@@H](Cc1c[nH]cn1)C(=O)N[C@@H](Cc1ccccc1)C(=O)O [3102.0847] (H-GVFYRPLHF-OH),5.5
23,CC[C@H](C)[C@H](NC(=O)[C@H](CS)NC(=O)[C@H](CO)NC(=O)[C@@H](NC(=O)[C@H](CS)NC(=O)[C@H](CO)NC(=O)[C@H](CCSC)NC(=O)[C@@H](N)CCSC)[C@@H](C)CC)C(=O)N[C@@H](Cc1ccccc1)C(=O)O [3102.0850] (H-MMSCISCIF-OH),7.6
24,CC[C@H](C)[C@H](NC(=O)[C@@H](N)CCCCN)C(=O)N[C@@H](CCCCN)C(=O)N[C@@H](Cc1c[nH]cn1)C(=O)N[C@@H](CCCCN)C(=O)NCC(=O)N[C@@H](CCSC)C(=O)N[C@@H](CO)C(=O)N[C@@H](Cc1ccccc1)C(=O)O [3102.0851] (H-KIKHKGMSF-OH),47
25,CC[C@H](C)[C@H](NC(=O)CNC(=O)[C@@H](N)CO)C(=O)NCC(=O)N[C@H](C(=O)N[C@@H](Cc1ccccc1)C(=O)N[C@@H](CC(C)C)C(=O)N[C@@H](Cc1c[nH]cn1)C(=O)N[C@@H](Cc1ccc(O)cc1)C(=O)O)[C@@H](C)O [3102.0852] (H-SGIGTFLHY-OH),23
26,CC[C@H](C)[C@H](NC(=O)[C@@H](N)CO)C(=O)N[C@@H](CS)C(=O)N[C@@H](CO)C(=O)N[C@@H](CCCCN)C(=O)N[C@@H](CO)C(=O)N[C@@H](CC(N)=O)C(=O)N1CCC[C@H]1C(=O)N[C@@H](Cc1ccccc1)C(=O)O [3102.0855] (H-SICSKSNPF-OH),39
27,CSCC[C@H](NC(=O)[C@H](CCCCN)NC(=O)[C@H](CCCCN)NC(=O)[C@H](Cc1ccc(O)cc1)NC(=O)[C@@H](NC(=O)[C@@H](N)CC(C)C)C(C)C)C(=O)N[C@@H](CCC(N)=O)C(=O)N[C@@H](CO)C(=O)N[C@@H](Cc1ccc(O)cc1)C(=O)O [3102.0856] (H-LVYKKMQSY-OH),46
28,CC[C@H](C)[C@H](NC(=O)[C@H](CS)NC(=O)[C@H](CCCNC(=N)N)NC(=O)[C@H](Cc1c[nH]cn1)NC(=O)[C@H](CC(C)C)NC(=O)[C@@H](N)CC(C)C)C(=O)N[C@@H](Cc1ccc(O)cc1)C(=O)N[C@@H](Cc1c[nH]cn1)C(=O)N[C@@H](Cc1ccc(O)cc1)C(=O)O [3102.0866] (H-LLHRCIYHY-OH),43
29,CC[C@H](C)[C@H](N)C(=O)N[C@@H](CO)C(=O)N[C@H](C(=O)N[C@@H](CCCCN)C(=O)N[C@@H](CC(C)C)C(=O)N[C@@H](CO)C(=O)N[C@@H](CS)C(=O)N[C@@H](Cc1c[nH]cn1)C(=O)N[C@@H](Cc1ccc(O)cc1)C(=O)O)[C@@H](C)O [3102.0872] (H-ISTKLSCHY-OH),18
30,CC(C)C[C@H](NC(=O)[C@H](CCCCN)NC(=O)[C@H](CS)NC(=O)[C@H](CC(C)C)NC(=O)[C@@H](N)CO)C(=O)N[C@@H](CC(N)=O)C(=O)N[C@@H](CC(N)=O)C(=O)N[C@H](C(=O)N[C@@H](Cc1ccccc1)C(=O)O)C(C)C [3102.0874] (H-SLCKLNNVF-OH),16
